Series [1] has as its target T1, Human Factor XIIa (Homo sapiens, UniProt P00748).
T1 construct: Proteolytic cleavage of FXII to heavy and light chains of FXIIa dramatically increases catalytic activity; purchased Enzyme Research Laboratories
T1 sequence (P00748 373-615 limits assumed): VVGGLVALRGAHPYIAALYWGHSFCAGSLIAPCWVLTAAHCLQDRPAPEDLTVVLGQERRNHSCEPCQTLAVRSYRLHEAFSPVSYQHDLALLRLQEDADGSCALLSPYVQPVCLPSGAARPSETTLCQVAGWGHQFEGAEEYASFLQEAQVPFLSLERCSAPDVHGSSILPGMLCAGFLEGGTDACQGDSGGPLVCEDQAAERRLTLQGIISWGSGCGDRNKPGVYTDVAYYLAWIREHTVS
T1 sequence (P00748 20-372 partner limits assumed): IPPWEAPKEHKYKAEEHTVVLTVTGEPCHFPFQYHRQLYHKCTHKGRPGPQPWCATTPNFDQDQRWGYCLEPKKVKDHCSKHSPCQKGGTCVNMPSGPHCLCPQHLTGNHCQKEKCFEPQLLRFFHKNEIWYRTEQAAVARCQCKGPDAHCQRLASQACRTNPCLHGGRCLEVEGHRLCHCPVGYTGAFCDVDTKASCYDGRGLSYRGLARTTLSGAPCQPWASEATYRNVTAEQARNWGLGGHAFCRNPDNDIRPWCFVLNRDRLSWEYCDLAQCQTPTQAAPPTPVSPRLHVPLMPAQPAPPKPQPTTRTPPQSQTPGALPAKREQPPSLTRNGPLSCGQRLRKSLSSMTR
Description: Determination of FXIIa inhibition (fluorogenic substrate H-DPro-Phe-Arg-AFC, IC50 assay). The format is biochemical. The conditions noted are these: substrate at Km concentration, 25° C.; category scale; read-out: Human FXII IC50 (nm). Put shortly:
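Human FXIIa incubated at 25° C. with fluorogenic H-DPro-Phe-Arg-AFC at its Km concentration plus varying compound levels. Linear fluorescence increase over 5 min taken as % activity; IC50 is concentration halving uninhibited activity.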

The target of series [2] is T2, Plasma Kallikrein (Homo sapiens, UniProt P03952).
T2 construct: FXIIa converts plasma prekallikrein (PK) to plasma kallikrein (PKa)
T2 sequence (P03952 391-638 limits assumed): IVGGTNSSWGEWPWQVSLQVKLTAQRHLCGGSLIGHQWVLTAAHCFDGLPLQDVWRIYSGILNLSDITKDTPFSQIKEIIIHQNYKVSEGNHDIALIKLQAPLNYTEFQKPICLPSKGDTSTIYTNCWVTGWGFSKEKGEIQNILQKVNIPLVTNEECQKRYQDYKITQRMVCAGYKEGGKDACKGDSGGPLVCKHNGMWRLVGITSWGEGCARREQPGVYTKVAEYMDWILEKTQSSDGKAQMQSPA
T2 sequence (P03952 20-390 partner limits assumed): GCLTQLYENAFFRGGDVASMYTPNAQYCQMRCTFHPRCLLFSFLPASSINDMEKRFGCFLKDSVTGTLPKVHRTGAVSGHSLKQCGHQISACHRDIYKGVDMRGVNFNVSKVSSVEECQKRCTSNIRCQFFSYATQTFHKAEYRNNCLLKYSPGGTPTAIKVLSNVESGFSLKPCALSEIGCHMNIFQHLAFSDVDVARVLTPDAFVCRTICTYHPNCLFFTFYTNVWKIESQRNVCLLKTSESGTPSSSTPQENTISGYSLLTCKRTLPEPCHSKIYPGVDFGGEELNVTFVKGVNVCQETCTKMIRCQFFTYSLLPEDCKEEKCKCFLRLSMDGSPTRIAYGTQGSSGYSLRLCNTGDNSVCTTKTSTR
Description: Related protease inhibition: Plasma Kallikrein (fluorogenic substrate at Km). The conditions noted are these: class symbols per Table 18, read-out: IC50 (human PKal). The format is biochemical. The method in brief: (§1)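 Each human protease was incubated with substrate and test compound over a concentration range; fluorescence release was then recorded for 5 min at 25° C. Rates were normalized to uninhibited enzyme (100%) to derive IC50.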

The target in series [3] is KLK1 (Homo sapiens, UniProt P06870). In words: Related protease inhibition: KLK1 (fluorogenic substrate at Km). Particulars: class symbols per Table 18. The series is classed as biochemical. Put shortly: (§2)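 Percent activity is derived from the linear fluorescence increase per minute, measured over 5 min at 25° C. IC50 marks 50% inhibition of uninhibited activity.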
Sequence of KLK1 (P06870 25-262): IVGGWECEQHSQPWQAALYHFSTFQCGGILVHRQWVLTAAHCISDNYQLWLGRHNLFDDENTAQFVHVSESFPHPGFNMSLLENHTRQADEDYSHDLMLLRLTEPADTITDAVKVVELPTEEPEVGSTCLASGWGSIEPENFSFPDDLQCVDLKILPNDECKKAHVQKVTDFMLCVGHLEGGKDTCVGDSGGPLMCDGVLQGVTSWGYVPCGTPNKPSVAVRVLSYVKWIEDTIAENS
Series [4] has as its target FXa (Homo sapiens, UniProt P00742). Description: Related protease inhibition: FXa (fluorogenic substrate at Km). Particulars: class symbols per Table 18. The series is classed as biochemical. The method in brief: as §2
Series [5] has as its target Thrombin (Homo sapiens, UniProt P00734). Description: Related protease inhibition: Thrombin (fluorogenic substrate at Km). The format is biochemical. Particulars: class symbols per Table 18. Put shortly: as §1
The nature of series [6]: Pharmacokinetics after single intravenous and single oral dose in rats. The series is classed as in vivo. Particulars: rat, plasma, male Sprague-Dawley rats, single iv (nominal 1 mg/kg) and single po (nominal 5 mg/kg) dose; for half-life: Phoenix WinNonlin; for bioavailability: oral bioavailability, 10% DMSO/10% Cremophor EL/80% SWFI. On the procedure: Pharmacokinetic studies of the compounds in Table 19 were performed to assess the pharmacokinetics following a single intravenous dose and a single oral dose in male Sprague-Dawley rats. Two rats were given a single intravenous dose of 1 mL/kg of a nominal 1 mg/ml (1 mg/kg) composition of test compound in 10% DMSO/10% Cremophor EL/80% SWFI vehicle. Two rats were given a single oral dose of 5 ml/kg of a nominal 1 mg/mL (5 mg/kg) composition of test compound in 10% DMSO/10% Cremophor EL/80% SWFI vehicle.
Following intravenous dosing, blood samples were collected over a period of 12 h. Sample times were 2, 5, 15 and 30 min then 1, 2, 4, 6, and 12 h. Following oral dosing, blood samples were collected over a period of 24 h. Sample times were 5, 15 and 30 min then 1, 2, 4, 6, 8, 12 and 24 h.
Following collection, blood samples were centrifuged and the plasma fraction analysed for concentration of test compound by LCMS. Oral bioavailability and half-life calculations from these studies were obtained using Phoenix WinNonlin (v8.0) and are shown below: […]

Series [7] has as its target Plasmin (Homo sapiens, UniProt P00747). In words: Related protease inhibition: Plasmin (fluorogenic substrate at Km). The format is biochemical. The conditions noted are these: class symbols per Table 18. On the procedure: (§3) In vitro inhibition of related proteases was determined using an IC50 assay based on standard literature methods (see e.g. Shori et al., Biochem. Pharmacol., 1992, 43, 1209; Bouckaert et al., European Journal of Medicinal Chemistry 110 (2016) 181). Human serine protease enzyme Plasma Kallikrein, KLK1, FXa, Plasmin, Thrombin and Trypsin were assayed for enzymatic activity using an appropriate fluorogenic substrate at Km concentration, FXIa at fixed substrate concentration of 100 μM and various concentrations of the test compound. Protease activity was measured by monitoring the accumulation of liberated fluorescence from the substrate over 5 min at 25° C. The linear rate of fluorescence increase per minute was expressed as percentage (%) activity. IC50 values were calculated as the concentration of inhibitor giving 50% inhibition of the uninhibited enzyme activity (100%).

Series [8] concerns the target Trypsin (Homo sapiens, UniProt P07477). Description: Related protease inhibition: Trypsin (fluorogenic substrate at Km). The series is classed as biochemical. The conditions noted are these: class symbols per Table 18. On the procedure:
as §3

The text below walks through data of patent US20240327412A1, “FACTOR XIIA INHIBITORS” (KALVISTA PHARMACEUTICALS LIMITED, priority 2021, published 2024).

What is called IC50 is the concentration that inhibits the measured activity by half. The half-life is how long it takes for the measured level to halve. What is called bioavailability is dose-corrected exposure relative to a reference, in per cent.

Sequence of FXa (P00742 235-488 limits assumed): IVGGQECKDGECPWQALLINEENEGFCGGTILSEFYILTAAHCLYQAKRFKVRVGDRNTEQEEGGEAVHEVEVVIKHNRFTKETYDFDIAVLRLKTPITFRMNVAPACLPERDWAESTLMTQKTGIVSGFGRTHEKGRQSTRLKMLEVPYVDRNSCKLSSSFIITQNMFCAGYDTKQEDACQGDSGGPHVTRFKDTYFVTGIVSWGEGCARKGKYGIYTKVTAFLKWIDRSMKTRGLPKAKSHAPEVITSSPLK
Sequence of FXa (P00742 41-179 partner limits assumed): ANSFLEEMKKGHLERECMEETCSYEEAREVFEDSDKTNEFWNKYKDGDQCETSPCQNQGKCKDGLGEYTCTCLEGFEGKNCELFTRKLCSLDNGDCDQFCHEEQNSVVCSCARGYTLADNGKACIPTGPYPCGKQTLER
Sequence of Plasmin (P00747 581-810 limits assumed): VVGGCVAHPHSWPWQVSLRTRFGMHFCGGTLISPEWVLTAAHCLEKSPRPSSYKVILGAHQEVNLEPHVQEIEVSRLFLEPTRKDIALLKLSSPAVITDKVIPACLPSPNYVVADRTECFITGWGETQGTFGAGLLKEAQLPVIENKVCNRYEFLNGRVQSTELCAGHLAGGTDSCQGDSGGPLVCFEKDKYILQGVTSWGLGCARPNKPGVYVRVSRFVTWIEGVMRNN
Sequence of Plasmin (P00747 97-580 partner limits assumed): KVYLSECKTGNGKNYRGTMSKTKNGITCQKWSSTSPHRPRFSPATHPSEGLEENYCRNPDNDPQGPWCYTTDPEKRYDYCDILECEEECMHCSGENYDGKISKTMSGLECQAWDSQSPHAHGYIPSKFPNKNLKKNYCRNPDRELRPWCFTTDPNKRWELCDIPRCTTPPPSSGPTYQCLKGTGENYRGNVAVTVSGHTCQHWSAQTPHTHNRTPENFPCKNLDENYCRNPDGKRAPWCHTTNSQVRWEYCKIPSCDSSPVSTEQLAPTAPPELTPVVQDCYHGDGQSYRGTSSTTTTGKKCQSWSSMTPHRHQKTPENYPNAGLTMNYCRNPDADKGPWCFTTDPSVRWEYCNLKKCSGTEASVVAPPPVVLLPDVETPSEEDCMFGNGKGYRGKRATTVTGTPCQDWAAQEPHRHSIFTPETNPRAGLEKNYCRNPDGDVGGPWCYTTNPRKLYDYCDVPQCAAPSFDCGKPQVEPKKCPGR

As for `Nc1nccc2c(NCC34COC(COc5ccn6ccnc6c5)(C3)C4)cccc12` [Example 2020, 5-N-[[1-(Imidazo[1,2-a]pyridin-7-yloxymethyl)-2-oxabicyclo[2.1.1]hexan-4-yl]methyl]isoquinoline-1,5-diamine], the IC50 in series [1] is 0.01 to 0.1 µM; in series [2] it was greater than 40 µM; in series [3], 3 to 10 µM; in series [4] it was greater than 40 µM; in series [5] it was greater than 40 µM. This compound also had a half-life in series [6] of 10.5 h. The compound further had a bioavailability in series [6] of 19.9%.

Regarding `Nc1nccc2c(NCC34CC(COc5ccn6ccnc6c5)(CCO3)C4)cccc12` [Example 10901, N5-((5-((Imidazo[1,2-a]pyridin-7-yloxy)methyl)-2-oxabicyclo[3.1.1]heptan-1-yl)methyl)isoquinoline-1,5-diamine], the IC50 was 0.01 to 0.1 µM in series [1]; greater than 40 µM in series [2]; 3 to 10 µM in series [3]; 10 to 40 µM in series [4]; 10 to 40 µM in series [5]. Moreover, in series [6], the half-life worked out at 11.9 h. This compound registered a bioavailability in series [6] of 9.3%.

With `Cn1ccc(OCC23CN(C(=O)OCc4ccccc4)C(CNc4cccc5c(N)nccc45)(C2)C3)cc1=O` [Example 12001, benzyl 1-(((1-aminoisoquinolin-5-yl)amino)methyl)-4-(((1-methyl-2-oxo-1,2-dihydropyridin-4-yl)oxy)methyl)-2-azabicyclo[2.1.1]hexane-2-carboxylate], the IC50 was 0.01 to 0.1 µM in series [1]; greater than 40 µM in series [2]; 3 to 10 µM in series [3]; greater than 40 µM in series [4]; greater than 40 µM in series [5]. In series [6], this compound gave a half-life of 1.14 h. The compound also showed a bioavailability in series [6] of 8.2%.

Turning to `Cn1ccc(OCC23CN(C(=O)CCc4ccccc4)C(CNc4cccc5c(N)nccc45)(C2)C3)cc1=O` [Example 12016, 4-((1-(((1-aminoisoquinolin-5-yl)amino)methyl)-2-(3-phenylpropanoyl)-2-azabicyclo[2.1.1]hexan-4-yl)methoxy)-1-methylpyridin-2(1H)-one], in series [1], the IC50 is 0.01 to 0.1 µM. In series [6], this compound gave a half-life of 1.08 h and a bioavailability of 0.4%.

Regarding `Nc1nccc2c(NCC34COC(COc5ccc6nccn6c5)(C3)C4)cccc12` [Example 2022, 5-N-[[1-(Imidazo[1,2-a]pyridin-6-yloxymethyl)-2-oxabicyclo[2.1.1]hexan-4-yl]methyl]isoquinoline-1,5-diamine], the IC50 in series [1] was 0.1 to 0.3 µM; in series [2] it was greater than 40 µM; in series [3], 3 to 10 µM; in series [4], greater than 40 µM; in series [5] it was greater than 40 µM. The compound also returned a half-life in series [6] of 3.13 h. Also, the bioavailability in series [6] amounted to 42.6%.

For the compound `Nc1nccc2c(NCC34CC(COC5CCn6ccnc6C5)(C3)C4)cccc12` (single isomer, unassigned) [Example 1002.1, (S*)-N5-((3-(((5,6,7,8-tetrahydroimidazo[1,2-a]pyridin-7-yl)oxy)methyl)bicyclo[1.1.1]pentan-1-yl)methyl)isoquinoline-1,5-diamine], the concentration for half-maximal inhibition (IC50) was 0.1 to 0.3 µM in series [1]; greater than 40 µM in series [2]; 3 to 10 µM in series [3]; 10 to 40 µM in series [4]; 3 to 10 µM in series [5]. In addition, the half-life in series [6] stood at 7.36 h. For the same compound, the bioavailability in series [6] is 41%.

`Cn1ccc(OCC23CCOC(CNc4cccc5c(N)nccc45)(C2)C3)cc1=O` [Example 10906, 4-((1-(((1-aminoisoquinolin-5-yl)amino)methyl)-2-oxabicyclo[3.1.1]heptan-5-yl)methoxy)-1-methylpyridin-2(1H)-one]: the IC50 is 0.1 to 0.3 µM in series [1]; greater than 40 µM in series [2]; 10 to 40 µM in series [3]; greater than 40 µM in series [4]; greater than 40 µM in series [7]; greater than 40 µM in series [5]. In series [8], the 50% inhibitory concentration (IC50) was in the range of 10 to 40 µM. The compound further displayed a half-life in series [6] of 2.55 h. In addition, the bioavailability in series [6] stood at 40.5%.

As for `Nc1nccc2c(NCC34CC(COc5ccc6nccn6c5)(CO3)C4)cccc12` [Example 6602, 5-N-[[4-(Imidazo[1,2-a]pyridin-6-yloxymethyl)-2-oxabicyclo[2.1.1]hexan-1-yl]methyl]isoquinoline-1,5-diamine], the IC50 in series [1] was 0.01 to 0.1 µM; in series [2], greater than 40 µM; in series [3], 3 to 10 µM; in series [4], 10 to 40 µM; in series [7] it was greater than 40 µM; in series [5], 10 to 40 µM. Besides, in series [8], the IC50 was greater than 40 µM. This compound came in with a half-life in series [6] of 5.7 h. The bioavailability in series [6] was determined as 33.5%.

On to `Nc1nccc2c(N3CCC4(CC(COc5ccn6ccnc6c5)C4)C3)cccc12` (single isomer, unassigned) [Example 8806, 5-(trans*-2-((imidazo[1,2-a]pyridin-7-yloxy)methyl)-6-azaspiro[3.4]octan-6-yl)isoquinolin-1-amine], for which the IC50 in series [1] is 0.1 to 0.3 µM; in series [2], greater than 40 µM; in series [3], 10 to 40 µM; in series [4], greater than 40 µM; in series [7], greater than 40 µM; in series [5] it was greater than 40 µM. This compound also showed an IC50 in series [8] greater than 40 µM.

For the compound `Cn1ccc(OCC23CN(C(=O)Nc4ccccc4)C(CNc4cccc5c(N)nccc45)(C2)C3)cc1=O` [Example 12036, 1-(((1-aminoisoquinolin-5-yl)amino)methyl)-4-(((1-methyl-2-oxo-1,2-dihydropyridin-4-yl)oxy)methyl)-N-phenyl-2-azabicyclo[2.1.1]hexane-2-carboxamide], the IC50 was 0.001 to 0.01 µM in series [1]; 10 to 40 µM in series [2]; 1 to 3 µM in series [3]; 10 to 40 µM in series [4]; 3 to 10 µM in series [7]; greater than 40 µM in series [5]. This compound also displayed an IC50 in series [8] greater than 40 µM.

As to `Cc1cnc2ccc(OCC34COC(CNc5cccc6c(N)nccc56)(C3)C4)cn12` [Example 6624, 5-N-[[4-[(3-Methylimidazo[1,2-a]pyridin-6-yl)oxymethyl]-2-oxabicyclo[2.1.1]hexan-1-yl]methyl]isoquinoline-1,5-diamine], the IC50 in series [1] was 0.01 to 0.1 µM; in series [2], 10 to 40 µM; in series [3], 1 to 3 µM; in series [4], 1 to 3 µM; in series [7], greater than 40 µM; in series [5] it was greater than 40 µM. This compound showed an IC50 in series [8] of 10 to 40 µM. Moreover, the half-life in series [6] worked out at 6.64 h. For the same compound, the bioavailability in series [6] came out at 14.8%.
